Experimental data reported in PubChem BioAssay (NCI).
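Grown in 96-well plates, cells were treated for 48 hours with each compound at five concentrations. Insufficient inhibition: endpoint recorded as highest concentration tested. GI50: concentration for 50% inhibition of growth. The concentration for full growth arrest is given as TGI.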

Legend:
Experiment in all cases: inhibition of tumour cell growth, NCI panel, 48 h
[1] = system: A549 NSCLC
[2] = system: UACC-257 melanoma
[3] = system: SN12C renal
[4] = system: SK-MEL-28 melanoma
[5] = system: EKVX NSCLC
[6] = system: NCI-H460 lung
[7] = system: COLO 205 colon
[8] = system: SNB-19 CNS
[9] = system: NCI/ADR-RES ovarian
[10] = system: HCT-116 colon
[11] = system: UO-31 renal
[12] = system: MDA-MB-231 breast
[13] = system: TK-10 renal
[14] = system: OVCAR-8 ovarian
[15] = system: OVCAR-3 ovarian
[16] = system: K-562 leukemia
[17] = system: A498 renal
[18] = system: NCI-H23 lung
[19] = system: MOLT-4 leukemia
[20] = system: M14 melanoma
[21] = system: UACC-62 melanoma
[22] = system: OVCAR-4 ovarian
[23] = system: CCRF-CEM leukemia
[24] = system: SF-295 CNS
[25] = system: SF-539 CNS
[26] = system: SW-620 colon
[27] = system: HOP-62 NSCLC
[28] = system: SF-268 CNS
[29] = system: RXF 393 renal
[30] = system: IGROV1 ovarian
[31] = system: SK-MEL-2 melanoma
[32] = system: CAKI-1 renal
[33] = system: 786-0 renal
[34] = system: OVCAR-5 ovarian
[35] = system: PC-3 prostate
[36] = system: HCC-2998 colon
[37] = system: SK-MEL-5 melanoma
[38] = system: NCI-H226 lung
[39] = system: NCI-H522 lung
[40] = system: HL-60(TB) leukemia
[41] = system: MDA-MB-435
[42] = system: RPMI-8226 leukemia
[43] = system: MALME-3M melanoma
[44] = system: BT-549 breast
[45] = system: LOX IMVI melanoma
[46] = system: T-47D breast
[47] = system: SNB-75 CNS
[48] = system: DU-145 prostate
[49] = system: HCT-15 colon
[50] = system: SR leukemia
[51] = system: MCF7 breast
[52] = system: HT29 colon
[53] = system: HS 578T breast
[54] = system: SK-OV-3 ovarian
[55] = system: U251 CNS
[56] = system: KM12 colon
[57] = system: ACHN renal
[58] = system: HOP-92 NSCLC

Work on `c1ccc(-c2nnc(-c3ccccn3)s2)nc1` yielded a GI50 [1] greater than 100 µM, a TGI [1] greater than 100 µM and a GI50 [2] greater than 100 µM. The TGI [2] was greater than 100 µM, the GI50 [3] was greater than 100 µM and the TGI [3] was greater than 100 µM. For the same molecule, the GI50 [4] was greater than 100 µM, the TGI [4] was greater than 100 µM and the GI50 [5] was greater than 100 µM. The TGI [5] was greater than 100 µM, the GI50 [6] was greater than 100 µM and the TGI [6] was greater than 100 µM. It also gave a GI50 [7] greater than 100 µM, a TGI [7] greater than 100 µM and a GI50 [8] greater than 100 µM. For the same molecule, the TGI [8] was greater than 100 µM, the GI50 [9] was greater than 100 µM and the TGI [9] was greater than 100 µM. It also gave a GI50 [10] greater than 100 µM, a TGI [10] greater than 100 µM and a GI50 [11] of 22.3 µM. It also gave a TGI [11] greater than 100 µM, a GI50 [12] of 72.5 µM and a TGI [12] greater than 100 µM. The GI50 [13] was greater than 100 µM, the TGI [13] was greater than 100 µM and the GI50 [14] was greater than 100 µM. The TGI [14] was greater than 100 µM, the GI50 [15] was greater than 100 µM and the TGI [15] was greater than 100 µM. The GI50 [16] was greater than 100 µM, the TGI [16] was greater than 100 µM and the GI50 [17] was greater than 100 µM. For the same molecule, the TGI [17] was greater than 100 µM, the GI50 [18] was greater than 100 µM and the TGI [18] was greater than 100 µM. It also gave a GI50 [19] greater than 100 µM, a TGI [19] greater than 100 µM and a GI50 [20] greater than 100 µM. It also gave a TGI [20] greater than 100 µM, a GI50 [21] greater than 100 µM and a TGI [21] greater than 100 µM. It also gave a GI50 [22] greater than 100 µM, a TGI [22] greater than 100 µM and a GI50 [23] greater than 100 µM. It also gave a TGI [23] greater than 100 µM, a GI50 [24] greater than 100 µM and a TGI [24] greater than 100 µM. For the same molecule, the GI50 [25] was greater than 100 µM, the TGI [25] was greater than 100 µM and the GI50 [26] was greater than 100 µM. The TGI [26] was greater than 100 µM, the GI50 [27] was greater than 100 µM and the TGI [27] was greater than 100 µM. It also gave a GI50 [28] greater than 100 µM, a TGI [28] greater than 100 µM and a GI50 [29] greater than 100 µM. The TGI [29] was greater than 100 µM, the GI50 [30] was 27.3 µM and the TGI [30] was greater than 100 µM. The GI50 [31] was greater than 100 µM, the TGI [31] was greater than 100 µM and the GI50 [32] was greater than 100 µM. The TGI [32] was greater than 100 µM, the GI50 [33] was greater than 100 µM and the TGI [33] was greater than 100 µM. For the same molecule, the GI50 [34] was greater than 100 µM, the TGI [34] was greater than 100 µM and the GI50 [35] was greater than 100 µM. It also gave a TGI [35] greater than 100 µM, a GI50 [36] greater than 100 µM and a TGI [36] greater than 100 µM. It also gave a GI50 [37] greater than 100 µM, a TGI [37] greater than 100 µM and a GI50 [38] greater than 100 µM. For the same molecule, the TGI [38] was greater than 100 µM, the GI50 [39] was greater than 100 µM and the TGI [39] was greater than 100 µM. It also gave a GI50 [40] greater than 100 µM, a TGI [40] greater than 100 µM and a GI50 [41] greater than 100 µM. The TGI [41] was greater than 100 µM, the GI50 [42] was greater than 100 µM and the TGI [42] was greater than 100 µM. The GI50 [43] was greater than 100 µM, the TGI [43] was greater than 100 µM and the GI50 [44] was greater than 100 µM. The TGI [44] was greater than 100 µM, the GI50 [45] was greater than 100 µM and the TGI [45] was greater than 100 µM. It also gave a GI50 [46] of 5.32 µM, a TGI [46] greater than 100 µM and a GI50 [47] of 72.9 µM. The TGI [47] was greater than 100 µM, the GI50 [48] was greater than 100 µM and the TGI [48] was greater than 100 µM. It also gave a GI50 [49] of 83.7 µM, a TGI [49] greater than 100 µM and a GI50 [50] greater than 100 µM. It also gave a TGI [50] greater than 100 µM, a GI50 [51] of 0.788 µM and a TGI [51] greater than 100 µM. For the same molecule, the GI50 [52] was greater than 100 µM, the TGI [52] was greater than 100 µM and the GI50 [53] was greater than 100 µM. For the same molecule, the TGI [53] was greater than 100 µM, the GI50 [54] was greater than 100 µM and the TGI [54] was greater than 100 µM. It also gave a GI50 [55] greater than 100 µM, a TGI [55] greater than 100 µM and a GI50 [56] greater than 100 µM. For the same molecule, the TGI [56] was greater than 100 µM, the GI50 [57] was greater than 100 µM and the TGI [57] was greater than 100 µM. For the same molecule, the GI50 [58] was 7.46 µM and the TGI [58] was greater than 100 µM.
